pKi: −log10 of the molar value.
Key:
D(3) dopamine receptor = D(3) dopamine receptor (Homo sapiens, UniProt P35462); assay: Ability to displace [3H]spiperone from the cloned human D3 dopamine receptor stably expressed in Chinese hamster ovary (CHO) cells was determined.; format: cell-based
D(2) dopamine receptor [1] = biological target: T1, D(2) dopamine receptor (Homo sapiens, UniProt P14416); assay: Ability to displace [3H]spiperone from the cloned human Dopamine receptor D2L stably expressed in Chinese hamster ovary (CHO) cells was determined.; format: cell-based
D(1A) dopamine receptor = D(1A) dopamine receptor (Bos taurus, UniProt Q95136); assay: Ability to displace D1 selective radioligand [3H]-SCH- 23390 in bovine striatal membrane preparations was determined; format: cell membranes, Striatum
D(2) dopamine receptor [2] = biological target: T1, D(2) dopamine receptor; assay: Ability to displace [3H]spiperone from the cloned human Dopamine receptor D2S stably expressed in Chinese hamster ovary (CHO) cells was determined.; format: cell-based
D(4) dopamine receptor = biological target: T2, D(4) dopamine receptor (Homo sapiens, UniProt P21917); assay: Binding affinity of compound towards human cloned Dopamine receptor D4.4 expressed in CHO cells using [3H]spiperone as radioligand; format: cell-based
T2 sequence (P21917 whole entry): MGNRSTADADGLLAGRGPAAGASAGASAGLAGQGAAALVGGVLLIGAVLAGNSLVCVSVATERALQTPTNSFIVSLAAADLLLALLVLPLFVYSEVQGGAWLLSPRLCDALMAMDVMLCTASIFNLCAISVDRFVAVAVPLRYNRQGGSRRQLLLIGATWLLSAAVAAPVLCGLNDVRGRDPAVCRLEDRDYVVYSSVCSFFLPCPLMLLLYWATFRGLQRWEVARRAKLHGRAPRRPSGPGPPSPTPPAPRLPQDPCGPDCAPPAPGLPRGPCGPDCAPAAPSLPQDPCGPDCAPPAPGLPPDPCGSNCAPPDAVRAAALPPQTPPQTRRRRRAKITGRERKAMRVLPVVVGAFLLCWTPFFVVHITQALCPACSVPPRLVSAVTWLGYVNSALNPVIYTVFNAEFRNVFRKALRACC

T1 sequence (P14416 whole entry): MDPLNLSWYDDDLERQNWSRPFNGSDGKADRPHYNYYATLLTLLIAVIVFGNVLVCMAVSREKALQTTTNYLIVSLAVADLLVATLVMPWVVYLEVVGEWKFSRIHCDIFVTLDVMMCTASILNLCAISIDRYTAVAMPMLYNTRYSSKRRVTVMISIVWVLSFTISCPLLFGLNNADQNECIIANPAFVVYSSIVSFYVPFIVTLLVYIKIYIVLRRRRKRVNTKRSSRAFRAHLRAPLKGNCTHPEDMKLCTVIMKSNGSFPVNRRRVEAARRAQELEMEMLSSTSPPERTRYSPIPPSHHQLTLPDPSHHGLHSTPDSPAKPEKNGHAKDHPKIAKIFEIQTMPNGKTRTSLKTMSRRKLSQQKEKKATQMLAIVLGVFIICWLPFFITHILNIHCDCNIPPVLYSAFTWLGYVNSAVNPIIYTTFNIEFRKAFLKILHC
D(3) dopamine receptor, sequence (P35462 whole entry): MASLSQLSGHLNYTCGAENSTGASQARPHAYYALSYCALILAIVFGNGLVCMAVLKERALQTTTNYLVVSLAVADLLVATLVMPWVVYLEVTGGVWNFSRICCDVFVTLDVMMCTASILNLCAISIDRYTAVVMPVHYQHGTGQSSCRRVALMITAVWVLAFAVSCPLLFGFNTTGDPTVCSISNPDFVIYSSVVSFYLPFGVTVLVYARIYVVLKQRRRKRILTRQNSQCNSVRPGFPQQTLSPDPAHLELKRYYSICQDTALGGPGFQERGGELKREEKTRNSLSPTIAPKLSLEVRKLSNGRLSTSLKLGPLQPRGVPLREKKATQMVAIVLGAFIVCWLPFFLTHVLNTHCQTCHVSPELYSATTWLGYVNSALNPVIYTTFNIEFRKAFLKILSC
D(1A) dopamine receptor, sequence (Q95136 whole entry): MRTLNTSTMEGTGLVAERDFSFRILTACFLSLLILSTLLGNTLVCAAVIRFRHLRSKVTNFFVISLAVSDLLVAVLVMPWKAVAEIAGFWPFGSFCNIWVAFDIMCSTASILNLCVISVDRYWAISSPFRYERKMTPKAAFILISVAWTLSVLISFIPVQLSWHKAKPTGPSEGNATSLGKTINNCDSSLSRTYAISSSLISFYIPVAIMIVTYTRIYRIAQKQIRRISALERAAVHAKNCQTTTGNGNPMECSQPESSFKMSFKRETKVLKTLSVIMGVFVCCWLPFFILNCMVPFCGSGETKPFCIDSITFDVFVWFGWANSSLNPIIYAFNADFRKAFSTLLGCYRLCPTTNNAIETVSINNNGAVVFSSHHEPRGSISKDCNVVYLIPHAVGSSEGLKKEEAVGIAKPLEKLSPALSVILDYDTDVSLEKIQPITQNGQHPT

Structure (SMILES) | pKi (D(3) dopamine receptor) | pKi (D(2) dopamine receptor [1]) | pKi (D(1A) dopamine receptor) | pKi (D(2) dopamine receptor [2]) | pKi (D(4) dopamine receptor)
N#CC(C#N)=Cc1[nH]ccc1CN1CCN(c2ccc(Cl)cc2)CC1 | 5.12 | 5.05 | 4.87 | 4.82 | 6.90
N#CC(C#N)=Cc1ccc(CN2CCN(c3ccc(Cl)cc3)CC2)[nH]1 | 4.51 | 4.31 | 4.40 | 4.23 | 7.96
N#CC(C#N)=Cc1[nH]ccc1CN1CCN(c2ccccc2)CC1 | 5.16 | 5.40 | 4.66 | 4.89 | 6.80

Next, values leading:

pKi (D(3) dopamine receptor) | pKi (D(2) dopamine receptor [1]) | pKi (D(1A) dopamine receptor) | pKi (D(2) dopamine receptor [2]) | pKi (D(4) dopamine receptor) | Structure (SMILES)
5.28 | < 4.00 | 4.24 | < 4.00 | 8.03 | N#CC(C#N)=Cc1ccc(CN2CCN(c3ccccc3)CC2)[nH]1
5.16 | 5.13 | 5.28 | 4.99 | 8.24 | N#CC(C#N)=Cc1cc(CN2CCN(c3ccc(Cl)cc3)CC2)c[nH]1
5.63 | 5.73 | 5.14 | 6.01 | 8.41 | N#CC(C#N)=Cc1cc(CN2CCN(c3ccccc3)CC2)c[nH]1

Reference: ChEMBL document CHEMBL1131791 (Bioorg Med Chem Lett, 1999)
